Experimental findings from ChEMBL document CHEMBL3259671, “From virtual to clinical: The discovery of PGN-1531, a novel antagonist of the prostanoid EP4 receptor” (Bioorg Med Chem Lett, 2014) are described below.

The nature of data set [1]: Solubility of the compound in 0.1 M phosphate buffer/[…] KCl at pH 7.4 after 24 hrs. The format is physicochemical.
Data set [2] is described as follows: Intrinsic clearance in human hepatocytes. As to conditions: read-out: CLH. The format is ADME, cell-based, Hepatocyte.
Data set [3] in a line: Intrinsic clearance in rat hepatocytes. The format is ADME, cell-based, Hepatocyte. Particulars: read-out: CLH.
Data set [4] can be described thus: Half life in po dosed rat. The format is ADME, organism-based. Particulars: in vivo.
The nature of data set [5]: Bioavailability in rat. The format is ADME, organism-based. Particulars: in vivo.
Data set [6] can be described thus: Permeability across human Caco2 cells. The format is ADME, cell-based. As to conditions: Caco-2, read-out: permeability.

In brackets after ≈: the same amount, converted by molar mass.

Broadly, the solubility is how much of the substance goes into solution per volume. Low values mean a poorly soluble substance, high ones a readily soluble substance. As for `COc1ccc(-c2ccc(OCc3cc(C(=O)NS(=O)(=O)CCCN4CCOCC4)oc3C)cc2)cc1`, in data set [1], the solubility at 24 h is 20 µg/mL (≈ 37.8 µM).

Consider `Cc1ccccc1S(=O)(=O)NC(=O)c1cc(CNc2ccc(-c3ccc(OC(F)F)cc3)cc2)c(C)o1`, for which, in data set [1], the solubility at 24 h is 20 µg/mL (≈ 38 µM).

In the case of `COc1ccc(-c2ccc(OCc3cc(C(=O)NS(=O)(=O)N(C)C)oc3C)cc2)cc1`, in data set [1], the concentration in solution (solubility at 24 h) was 10 µg/mL (≈ 22.5 µM).

In data set [1], `COc1ccc(-c2ccc(OCc3cc(C(=O)NS(=O)(=O)c4ccc(CN)cc4)oc3C)cc2)cc1` returned a solubility at 24 h of under 0.6 µg/mL.

Regarding `Cc1noc(C)c1S(=O)(=O)NC(=O)c1cc(COc2ccc(-c3ccc(OC(F)F)cc3)cc2)c(C)o1`, the solubility at 24 h in data set [1] is under 0.6 µg/mL.

In data set [1], `COc1ccc(-c2ccc(OCc3cc(C(=O)NS(=O)(=O)c4ccc(C)cn4)oc3C)cc2)cc1` came in with a solubility at 24 h of 5 µg/mL (≈ 10.2 µM).

`COc1ccc(-c2ccc(OCc3cc(C(=O)NS(=O)(=O)c4ccccc4C)oc3C)cc2)nc1` [BGC-20-1531 FREE BASE] returned a solubility at 24 h in data set [1] of 10 µg/mL (≈ 20.3 µM).

Take `Cc1oc(C(=O)NS(=O)(=O)c2ccccc2)cc1CNc1ccc(-c2ccccc2)cc1`: the concentration in solution in data set [1] (solubility at 24 h) was 300 µg/mL (≈ 672 µM).

In data set [1], `COc1ccccc1-c1ccc(OCc2cc(C(=O)NS(=O)(=O)c3ccccc3)oc2C)cc1` returned a solubility at 24 h of 8 µg/mL (≈ 16.8 µM).

Take `CCCS(=O)(=O)NC(=O)c1cc(COc2ccc(-c3ccc(OC)cc3)cc2)c(C)o1`: the solubility at 24 h in data set [1] came out at 7 µg/mL (≈ 15.8 µM).

In the case of `Cc1oc(C(=O)NS(=O)(=O)c2ccccc2)cc1COc1ccc(-c2ccc(OC(F)F)cc2)cc1`, the solubility at 24 h in data set [1] was under 0.6 µg/mL.

For `Cc1ccccc1S(=O)(=O)NC(=O)c1cc(CNc2ccc(-c3ccccc3)cc2)c(C)o1`, in data set [1], the concentration in solution (solubility at 24 h) came to 20 µg/mL (≈ 43.4 µM).

For `Cc1oc(C(=O)NS(=O)(=O)c2ccccc2)cc1COc1ccc(-c2ccccc2)cc1`, the solubility at 24 h in data set [1] amounted to 2 µg/mL (≈ 4.47 µM).

With `COc1ccc(-c2ccc(OCc3cc(C(=O)NS(=O)(=O)c4ccccc4)oc3C)cc2)c(C)c1`, the solubility at 24 h in data set [1] amounted to 20 µg/mL (≈ 40.7 µM).

With `COc1ccc(-c2ccc(OCc3cc(C(=O)NS(=O)(=O)c4ccccc4)oc3C)cc2)cc1`, the concentration in solution in data set [1] (solubility at 24 h) was 11 µg/mL (≈ 23 µM).

Turning to `COc1ccc(-c2ccc(OCc3cc(C(=O)NS(=O)(=O)c4c(C)noc4C)oc3C)cc2)c(C)c1`, the solubility at 24 h in data set [1] is 200 µg/mL (≈ 392 µM).

`COc1ccc(-c2ccc(OCc3cc(C(=O)NS(=O)(=O)c4c(C)noc4C)oc3C)cc2)cc1` gave a solubility at 24 h in data set [1] of 0.2 µg/mL (≈ 0.403 µM).

Compound `COc1ccc(-c2ccc(OCc3cc(C(=O)NS(=O)(=O)c4ccccc4)oc3C)cc2)nc1` displayed a solubility at 24 h in data set [1] of 30 µg/mL (≈ 62.7 µM).

As to `COc1ccc(-c2ccc(OCc3cc(C(=O)NS(=O)(=O)c4ccc(O)cc4)oc3C)cc2)cc1`, the concentration in solution in data set [1] (solubility at 24 h) came to 20 µg/mL (≈ 40.5 µM).

With `COc1ccc(-c2ccc(OCc3cc(C(=O)NS(=O)(=O)c4c(C)noc4C)oc3C)cc2)nc1`, the concentration in solution in data set [1] (solubility at 24 h) came to 90 µg/mL (≈ 181 µM).

A word on the half-life: it is the time in which the quantity being followed falls by half. The low end stands for rapid decline, the high end for slow decline. Usually bioavailability stands for dose-corrected exposure relative to a reference, in per cent. Low readings indicate poor availability, high ones good availability. `COc1ccc(-c2ccc(OCc3cc(C(=O)[N-]S(=O)(=O)c4ccccc4C)oc3C)cc2)nc1.[Na+]` [BGC-20-1531]: the CLint scaled was 6.5 mL/min/kg in data set [2] and 2.7 mL/min/kg in data set [3]. Further, the half-life in data set [4] was 2.3 h. The same compound returned a bioavailability in data set [5] of 84%. For the same compound, the Papp in data set [6] is 14.5 ×10⁻⁶ cm/s.
